The values that follow come from US20050245520A1, “2-Phenylpyridin-4-yl derivatives as alk5 inhibitors” (priority 2002, published 2005).

By IC50 is commonly meant the midpoint of a concentration-inhibition curve. What is called melting point is the temperature of the solid-liquid transition.

SMILES strings stand for the structures. Like-named read-outs stand apart in the source and are kept apart here.

Data set [1] relates to TGF-β signalling (PAI-1 promoter-luciferase in HepG2 cells). Nature of the data set: Cellular transcriptional assay: PAI-1 promoter firefly luciferase reporter in cells exposed to TGF-β. Type of data set: cell-based. Conditions: for IC50: HepG2 cells, 1 ng/mL rhTGFβ-1. The method, then: Assay 1 (Cellular Transcriptional Assay)
The assay was performed in HepG2 cells stably transfected with the PAI-1 promoter (known to be a strong TGF-β responsive promoter) linked to a luciferase (firefly) reporter gene. The compounds were selected on their ability to inhibit luciferase activity in cells exposed to TGF-β. In addition, cells were transfected with a second luciferase (Renilla) gene which was not driven by a TGF-β responsive promoter and was used as a toxicity control.
96 well microplates were seeded, using a multidrop apparatus, with the stably transfected cell line at a concentration of 35000 cells per well in 200 μl of serum-containing medium. These plates were placed in a cell incubator.
18 to 24 hours later (Day 2), cell-incubation procedure was launched. Cells were incubated with TGF-β and a candidate compound at concentrations in the range 50 nM to 10 μM (final concentration of DMSO 1%). The final concentration of TGF-β (rhTGFβ-1) used in the test was 1 ng/mL. Cells were incubated with a candidate compound 15-30 mins prior to the addition of TGF-β. The final volume of the test reaction was 150 μl. Each well contained only one candidate compound and its effect on the PAI-1 promoter was monitored.
Columns 11 and 12 were employed as controls. Column 11 contained 8 wells in which the cells were incubated in the presence of TGF-β, without a candidate compound. Column 11 was used to determine the ‘reference TGF-β induced firefly luciferase value’ against which values measured in the test wells (to quantify inhibitory activity) were compared. […]
12 to 18 hours later (day 3), the luciferase quantification procedure was launched. […] Following agitation (15 to 30 mins), luciferase activities of the plates were read in a dual-injector luminometer (BMG lumistar). For this purpose, 50 μl of luciferase assay reagent and 50 μl of ‘Stop & Glo’ buffer were injected sequentially to quantify the activities of both luciferases. […] For each of the compounds tested, a concentration response curve was constructed from which an IC50 value was determined graphically.
For orientation: A reporter such as luciferase makes a cellular process visible.

Data set [2] concerns the target T1, recombinant GST-ALK5 (residues 198-503) (Homo sapiens, UniProt P36897).
T1 construct: assays using recombinant GST-ALK5 (residues 198-503)
T1 sequence (P36897 198-503): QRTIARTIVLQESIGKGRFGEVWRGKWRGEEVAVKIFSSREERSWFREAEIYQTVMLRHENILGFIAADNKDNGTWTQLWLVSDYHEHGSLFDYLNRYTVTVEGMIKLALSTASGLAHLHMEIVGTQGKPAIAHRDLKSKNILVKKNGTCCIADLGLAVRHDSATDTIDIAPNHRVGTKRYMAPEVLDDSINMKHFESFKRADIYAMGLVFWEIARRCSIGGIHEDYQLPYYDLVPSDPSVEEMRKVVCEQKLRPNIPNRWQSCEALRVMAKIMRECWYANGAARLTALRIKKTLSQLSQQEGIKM
Nature of the data set: Alk5 fluorescence polarization assay (displacement of rhodamine green-labelled ligand). Type of data set: binding. For orientation: In fluorescence polarisation assays a small probe gives low polarisation when free and higher when bound to something large.
Protocol: Kinase inhibitor compounds conjugated to fluorophores, can be used as fluorescent ligands to monitor ATP competitive binding of other compounds to a given kinase. The increase in depolarization of plane polarized light, caused by release of the bound ligand into solution, is measured as a polarization/anisotropy value.
The compounds were serially diluted (3-fold in 100% DMSO) across the plate to column 11 to yield 11 concentrations for each test compound. Column 12 contained only DMSO.
ALK5 was added to assay buffer containing the above components and 1 nM of the rhodamine green-labelled ligand so that the final ALK5 concentration was 10 nM based on active site titration of the enzyme. The enzyme/ligand reagent (39 μl) was added to each well of the previously prepared assay plates. […] The plates were read immediately on a LJL Acquest fluorescence reader (Molecular Devices, serial number AQ1048) with excitation, emission, and dichroic filters of 485 nm, 530 nm, and 505 nm, respectively. The fluorescence polarization for each well was calculated by the Acquest reader and then imported into curve fitting software for construction of concentration response curves. The normalized response was determined relative to the high controls (1 μl DMSO in column 12, rows A-D) and the low controls (1 μl of control compound in column 12, rows E-H). An IC50 value was then calculated for each compound

In the case of `Cc1cccc(-c2[nH]c(C(C)(C)C)nc2-c2ccnc(-c3ccc(N4CCOCC4)cc3)c2)n1` [Example 86, 4-{4-[4-(2-tert-Butyl-5-{6-methyl}-pyridin-2-yl-1 H-imidazol-4-yl)-pyridin-2-yl]-phenyl}-morpholine], the 50% inhibitory concentration (IC50) in data set [1] was found to be 183 nM; in data set [2] (fluorescence polarization, 10 nM ALK5, 1 nM labelled ligand, read-out: ALK5 receptor modulator activity (IC50)), 34 nM.

Consider `O=C1C=CCC1` [CPO, Cyclopentenone, reference compound], for which the “firefly and renilla luciferase activities (toxicity control)” value in data set [1] (500 μM CPO in presence of TGF-β, relative to TGF-β only) is on record as “around 50%”.

With `Cc1cccc(-c2sc(N)nc2-c2ccnc(-c3ccc(CN(C)C)cc3)c2)n1` [Example 137], the melting point worked out at 210 °C.

In turn, `CN1CCN(c2ccc(-c3cc(-c4c(-c5ccccn5)nc5ccccn45)ccn3)cc2)CC1` [Example 55, 3-{2-[4-(4-methylpiperazin-1-yl)-phenyl]-pyridin-4-yl}-2-pyridin-2-yl-imidazo[1,2-a]pyridine] returned a melting point of 150 °C.

`c1ccc(-c2nc3ccccn3c2-c2ccnc(-c3ccc(N4CCOCC4)cc3)c2)nc1` [Example 54, 3-[2-(4-(morpholin-4-yl)-phenyl)-pyridin-4-yl]-2-pyridin-2-yl-imidazo[1,2-a]pyridine] returned a melting point of 145 °C.

Consider `Cc1cccc(-c2nc(C(C)C)[nH]c2-c2ccnc(-c3ccc(C(=O)NC4CCOCC4)cc3)c2)n1` [Example 96, N-(tetrahydropyran-4-yl)-4-(4-{2-isopropyl-5-[6-methyl-pyridin-2-yl]-1H-imidazol-4-yl}-pyridin-2-yl)-benzamide], for which the values for the IC50 in data set [1] (Homo sapiens) and in data set [2] were under 14 nM and 25 nM, respectively.

`Cc1cccc(-c2sc(N)nc2-c2ccnc(-c3ccc(Cl)cc3)c2)n1` [Example 125] yielded a melting point of 222 °C.

Compound `Cc1cccc(-c2nc3ccccn3c2-c2ccnc(-c3ccc(NS(=O)(=O)C(F)(F)F)cc3)c2)n1` [Example 53, 2-(6-methyl-pyridin-2-yl)-3-{2-[4-(trifluoromethylsulfonylamino)phenyl]-pyridin-4-yl}-imidazo[1,2-a]pyridine] displayed a melting point of 135 °C.

`Cc1cccc(-c2sc(N)nc2-c2ccnc(-c3ccc(CN4CCOCC4)cc3)c2)n1` [Example 131] yielded a melting point of 236 °C.
